Columns and labels:
[1] = Inhibition of class I FBA; design: species or system Homo sapiens
[2] = Inhibition of class II FBA
[3] = species on record: Oryctolagus cuniculus; assay: Inhibition of rabbit muscle NADH-dependent cytosolic glycerophosphate dehydrogenase

SMILES | Ki [1] [µM] | Ki [2] [µM] | Ki [3] [µM]
O=C(CCP(=O)(O)O)NO | > 500 | 145 | 6
O=C(COP(=O)(O)O)NO [PHOSPHOGLYCOLOHYDROXAMATE] | 1 | 0.01 | 10
NNC(=O)COP(=O)(O)O [PHOSPHORIC ACID MONOHYDRAZINOCARBONYLMETHYL ESTER] | 370 | 0.34 | > 500
NC(CC(=O)NO)P(=O)(O)O (stereo not drawn) | 9000 | 3000 | > 500
N/C(COP(=O)(O)O)=N/O | > 1000 | 2.3 | 100
O=C(CC(O)P(=O)(O)O)NO (stereo not drawn) | 180 | 418 | 40
